Consider 1 substance from patent US9161944B2, “Method for preventing cancer metastasis” (INSERM (INSTITUT NATIONAL DE LA SANTE ET DE LA SANTE ET DE …, priority 2010, dated 2015).

The test system of data set [1] is MCF-10A. The experiment in a line: Transwell motility of non cancerous cells. The following applies: 10 nM to 1 μM, FIG. 6C. The format is cell-based, human. The method, then: (§1) FIG. 6: JPH1701 (or Ohmline) activity on cell motility on cancerous MDA-MB-435s cells and on non cancerous MCF-10A cells. The motility was tested by transwell assay. Additionally, viability tests were performed using MTT assays. FIG. 6A-B) JPH1701 (the concentrations of JPH1701, for the FIG. 6A, are 0 (control condition), 10 nM, 100 nM, 300 nM and 1 μM) reduces motility (FIG. 6A) of MDA-MB-435s wild type (WT) cells from 10 nM without affecting viability (FIG. 6B) except at 10 μM. FIG. 6C-D) MCF-10A motility (FIG. 6C) and viability (FIG. 6D) are not affected by JPH1701 (the concentrations of JPH1701, for the FIG. 6C, are 0 (control condition), 10 nM, 100 nM, 300 nM and 1 μM). FIG. 6E-F) Effect on SK3 dependent motility.
(§2) The immortalized normal mammary epithelial cell lines MCF-10A and 184A1 were cultured in DMEM/Ham's F-12, 1:1 mix containing 5% horse serum (Invitrogen Life Technologies, France), insulin (10 μg/ml), epidermal growth factor (20 ng/ml), hydrocortisone (0.5 μg/ml) and, respectively for MCF-10A and 184A1, 100 ng/ml cholera toxin and 1 ng/ml cholera toxin plus 5 μg/ml transferrin.

Data set [2] concerns MCF-10A. The experiment in a line: Viability (MTT) of non cancerous cells. The format is cell-based, human. The conditions noted are these: FIG. 6D. Here is the method:
as §1, §2

The test system of data set [3] is MDA-MB-435s cells expressing luciferase. Briefly: Experimental metastasis model, cells injected into tail vein, BLI. It counts as in vivo, NMRI nude mice. Here is the method:
Female NMRI nude mice, 6 weeks old, were purchased from Janvier laboratories. Mice were bred and housed at INSERM, U892, University of Nantes, under the animal care license no 44565.
MDA-MB-435s were incubated with 1 μM JPH1701 or with 2% DMSO/3% ethanol (vehicle) during 24 h and injected (0.75 106) in iv into the lateral tail vein. Next, mice were treated three times a week for 12 weeks with JPH1701 at 15 mg/kg in i.v. or with vehicle.
All of the mice were assessed weekly using whole-body bioluminescent imaging to quantify relative amounts of metastasis burden (ΦImageur™; BIOSPACE Lab, France). Each mouse was given potassium salt of D-luciferin (Interchim) at dose of 150 mg/kg body weight by intraperitoneal injection and anesthetized with Ketamin/xylasin i.p. injection. […] Regions of interest were drawn around the experimental metastases. The amount of metastasis burden within each region of interest was quantified as the relative amount of light produced from the luciferase activity in breast cancer cells and expressed in cpm using the Photovision+ software (version 1.3; Biospace Lab). At necropsy, ex vivo BLI measurement were performed for each tissues collected.
To determine whether a SK3/KCa2.3 blocker such as JPH1701 could prevent metastasis development, we used a model of experimental metastasis with MDA-MB-435s cells expressing the firefly luciferase gene. Cancer cells were injected directly to the systemic circulation into the vein tail. One cohort of mice was treated with JPH1701 three times a week for 12 weeks by i.v. administration. Another cohort was treated with the vehicle in the same conditions. At the end of treatment, metastases were visualized in vivo by bioluminescence imaging (BLI) in 70% (7/10) of control mice and only in 40% (4/10) of JPH1701 treated-mice (Table 4). To go further, mice were sacrificed and detection of metastases in different tissues was performed ex vivo by BLI. The number of positive tissues from each cohort was show in Table 4. Metastatic lesions were detected in all vehicle-treated mice.

[4] abbreviates: 15 mg/kg i.v. three times a week, 12 weeks, N = 10.
The mark [5] stands for this setting: 15 mg/kg i.v., 12 weeks, N = 10.

With “hexadecyloxy-2-O-methyl-sn-glycerol-lactose [JPH1701]”, the “Effect on cell migration of non-cancerous cells” value in the data set with MCF-10A [1] was “did not affected”. For the same substance, in the data set with MCF-10A [2], the “Effect on cell viability of non-cancerous cells” value is given as “did not affected”. Moreover, the “Adverse effects in mice” value in data set [3] (15 mg/kg i.v. three times a week for 12 weeks) was “No adverse effects”. Also, in data set [3] (setting [4]), the “Number of mice with experimental metastases detected ex vivo by BLI” value is reported as 7 and the “Number of mice with experimental metastases detected in vivo by BLI” value is reported as 4. Further, the “Mice with no sign of metastasis development ex vivo” value in data set [3] (15 mg/kg i.v., 12 weeks) was determined as 30%. For the same substance, in data set [3] (setting [5]), the “Number of tissues with metastases detected by BLI: column” value amounted to 2, the “Number of tissues with metastases detected by BLI: kidney” value is given as 0, the “Number of tissues with metastases detected by BLI: leg” value is on record as 3 and the “Number of tissues with metastases detected by BLI: liver” value is given as 0. For the same substance, in data set [3] (setting [5]), the “Number of tissues with metastases detected by BLI: lung” value is recorded as 5, the “Number of tissues with metastases detected by BLI: lymph node” value is on record as 1, the “Number of tissues with metastases detected by BLI: ovary/uterus” value is reported as 0 and the “Number of tissues with metastases detected by BLI: spleen” value came out at 0. Also, in data set [3] (15 mg/kg i.v., 12 weeks, control 70%), the “Mice with metastases visualized in vivo by BLI at the end of treatment” value was 40%. The Metastatic profile entry in data set [3] (FIGS. 10A-D) is “shifted the metastatic profile toward a less one”. In addition, in data set [3] (mice with metastases in vivo on week 12), the “Additional wait until 75% of mice present detectable metastases (vehicle: week 4)” value stood at 3 weeks. Moreover, the “Metastasis appearance, times faster in control group than in treated group” value in data set [3] (mice with metastases in vivo on week 12, FIG. 10E) is “roughly 3 times”.
